Target: VP35 (EBOV VP35) (Ebola virus - Mayinga, Zaire, 1976, UniProt Q05127)
Assay: biochemical
Type: binding

Chain of VP35 (EBOV VP35) (Q05127 whole entry, looked up): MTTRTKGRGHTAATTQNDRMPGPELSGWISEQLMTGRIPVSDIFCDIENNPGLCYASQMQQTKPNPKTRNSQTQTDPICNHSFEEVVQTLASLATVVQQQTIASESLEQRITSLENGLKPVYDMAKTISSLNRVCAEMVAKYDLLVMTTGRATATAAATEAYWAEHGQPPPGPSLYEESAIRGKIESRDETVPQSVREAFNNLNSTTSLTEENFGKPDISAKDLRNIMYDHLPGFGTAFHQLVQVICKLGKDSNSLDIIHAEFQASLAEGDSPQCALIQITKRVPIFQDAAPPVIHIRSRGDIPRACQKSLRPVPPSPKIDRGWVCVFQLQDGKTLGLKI

Compound `Cc1oc(C)c(S(N)(=O)=O)c1C(=O)O` [SFC, 2,5-Dimethyl-4-sulfamoyl furan-3-carboxylic acid] has a Kd of ~375 nM.

Source: paper PMC10942258 (PLOS Biology, 2024)
